{"source": "patent US5258377A", "about": "“2-spirocyclopropyl 4-acylcephems” (Taiho Pharmaceutical Co., Ltd., priority 1991, dated 1993)"}
{"target": "T1, human leukocyte elastase (HLE) (Homo sapiens, UniProt P08246)", "T1 sequence (P08246 30-247 limits assumed)": "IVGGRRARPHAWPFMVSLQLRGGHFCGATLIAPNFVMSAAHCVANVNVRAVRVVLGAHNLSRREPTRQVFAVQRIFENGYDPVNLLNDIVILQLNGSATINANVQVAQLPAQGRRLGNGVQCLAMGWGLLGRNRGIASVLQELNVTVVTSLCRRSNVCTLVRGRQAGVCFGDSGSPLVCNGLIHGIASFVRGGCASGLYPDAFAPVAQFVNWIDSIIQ", "assay": "in vitro anti-elastase activity against human leukocyte elastase (HLE)", "format": "biochemical", "units": {"IC50": "nM"}}
{"smiles": "CCC(=O)C1=C(C)C2(CC2(c2ccccc2)c2ccccc2)S(=O)(=O)[C@@H]2[C@@H](OC)C(=O)N12", "note": "(stereo partly drawn) [Compd 2, 7α-Methoxy-2-spiro (2',2'-diphenyl)cyclopropyl-3-methyl-3-cephem-4-ethylcarbonyl 1,1-dioxide]", "IC50": 10.3}
{"smiles": "CCCCC(=O)C1=C(C)C2(CC2(c2ccccc2)c2ccccc2)S(=O)(=O)[C@@H]2[C@@H](OC)C(=O)N12", "note": "(stereo partly drawn) [Compd 3, 7α-Methoxy-2-spiro(2',2'-diphenyl)cyclopropyl-3-methyl-3-cephem-4-butylcarbonyl 1,1-dioxide]", "IC50": 7.4}
{"smiles": "CC1=C(C(=O)c2ccccc2)N2C(=O)[C@H](Cl)[C@H]2S(=O)(=O)C12CC2(c1ccccc1)c1ccccc1", "note": "(stereo partly drawn) [Compd 4, 7α-chloro-2-spiro (2',2'-diphenyl)cyclopropyl-3-methyl-3-cephem-4-phenylcarbonyl 1,1-dioxide]", "IC50": 8.9}
{"smiles": "CC1=C(C(=O)C(C)(C)C)N2C(=O)[C@H](Cl)[C@H]2S(=O)(=O)C12CC2(c1ccccc1)c1ccccc1", "note": "(stereo partly drawn) [Compd 5, 7α-Chloro-2-spiro(2',2'-diphenyl)cyclopropyl-3-methyl-3-cephem-4-t-butylcarbonyl 1,1-dioxide]", "IC50": 6.3}
{"smiles": "CO[C@H]1C(=O)N2C(C(=O)C(C)(C)C)=C(C)C3(CC3(c3ccccc3)c3ccccc3)S(=O)(=O)[C@H]12", "note": "(stereo partly drawn) [Compd 6, 7α-Methoxy-2-spiro(2',2'-diphenyl)cyclopropyl-3-methyl-3-cephem-4-t-butylcarbonyl 1,1-dioxide]", "IC50": 12}
